The text below walks through data of ChEMBL document CHEMBL1201862, “PubChem BioAssay data set” (2004).

Among the test systems are A498; SN12C; HOP-62; HCT-15; HT-29; SF-539; MOLT-4; A549; OVCAR-8; NCI-H460; TK-10; UO-31; IGROV-1; U-251; Malme-3M; NCI-H226; UACC-257; SNB-19.
What all share (assay): growth of human tumour cells (NCI), 48 h

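Values below derive from 48-hour exposures of cells grown in 96-well plates, with endpoints linearly interpolated between the two concentrations bracketing the appropriate inhibition level. The concentration for 50% growth inhibition is given as GI50.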 Activity calls are given as the source filed them. Cut-off read from the data, not from the text of the source: active = GI50 up to about 1.1 µM and inactive = higher.

For the compound `COc1ccc(/C=C2\CCCCC2=O)cc1`, the GI50 with A498 is > 100 µM (inactive); in the assay on SN12C it was > 100 µM (inactive); with HOP-62, > 100 µM (inactive); in the assay on HCT-15, above 100 µM; in the assay on HT-29, > 100 µM (inactive); with SF-539, > 100 µM (inactive). The GI50 in the assay with MOLT-4, in the assay on A549, in the assay with OVCAR-8, with NCI-H460, in the assay with TK-10 and in the assay with UO-31 was > 100 µM (inactive) throughout. Also, the GI50 with IGROV-1 and in the assay on U-251 was > 100 µM (inactive) each time.
In the case of `O=c1[nH]c2cc([N+](=O)[O-])ccc2nc1/C(=N/Nc1ccccc1)C(O)c1ccccc1Cl` (stereo not drawn), the GI50 in the assay with SN12C was > 100 µM (inactive); in the assay on HOP-62, 62.5 µM (inactive); in the assay on Malme-3M it was 85.3 µM (inactive); in the assay on HCT-15, 7.8 µM; with NCI-H226, 80.2 µM (inactive); with HT-29, 46 µM (inactive). Also, the GI50 with SF-539 was 44.9 µM (inactive); in the assay with MOLT-4, > 100 µM (inactive); in the assay with A549, 41.9 µM (inactive); with OVCAR-8 it was > 100 µM (inactive); with UACC-257, > 100 µM (inactive); with NCI-H460 it was 49.2 µM (inactive). Moreover, the GI50 with SNB-19 was > 100 µM (inactive); in the assay with TK-10, > 100 µM (inactive); in the assay on UO-31, 21.1 µM (inactive); with IGROV-1 it was 43.9 µM (inactive); in the assay on U-251 it was 58.6 µM (inactive).
In the case of `C=CCn1c(=S)sc2c(C(=O)OCC)c3c(C)cc(C)cn3c2c1=O`, the GI50 with SN12C was > 100 µM (inactive); in the assay with HOP-62 it was > 100 µM (inactive); in the assay with Malme-3M, > 100 µM (inactive); with HCT-15 it was above 100 µM; in the assay with NCI-H226, > 100 µM (inactive); in the assay on HT-29 it was > 100 µM (inactive). Moreover, the GI50 in the assay with SF-539 was 80.5 µM (inactive); in the assay with MOLT-4 it was > 100 µM (inactive); in the assay on A549, > 100 µM (inactive); in the assay with OVCAR-8, > 100 µM (inactive); with UACC-257, > 100 µM (inactive); in the assay on NCI-H460 it was > 100 µM (inactive). Besides, the GI50 in the assay on SNB-19 was > 100 µM (inactive); with TK-10, > 100 µM (inactive); with UO-31 it was > 100 µM (inactive); in the assay with IGROV-1 it was > 100 µM (inactive); with U-251, 75.9 µM (inactive).
As for `CC(=O)N1CCc2[nH]c3ccccc3c2CC1`, the GI50 was > 100 µM (inactive) in the assay on A498; > 100 µM (inactive) in the assay on HOP-62; > 100 µM (inactive) in the assay with Malme-3M; above 100 µM with HCT-15; > 100 µM (inactive) in the assay on HT-29; > 100 µM (inactive) with SF-539. Also, the GI50 with MOLT-4, in the assay on A549, in the assay with OVCAR-8, in the assay with UACC-257, in the assay on NCI-H460 and in the assay on TK-10 was > 100 µM (inactive) in each case. Further, the GI50 in the assay with IGROV-1 and in the assay with U-251 was > 100 µM (inactive) each time.
Consider `Cc1cc(CC(O)c2ccc(Cl)c(Cl)c2)nc(O)n1` (stereo not drawn), for which the GI50 with A498 was 53.8 µM (inactive); in the assay on SN12C, 86.3 µM (inactive); in the assay on HOP-62, 25.6 µM (inactive); with Malme-3M it was 81.8 µM (inactive); in the assay with HCT-15, 30.7 µM; with NCI-H226 it was 26.9 µM (inactive). For the same compound, the GI50 in the assay with HT-29 was 46.9 µM (inactive); in the assay on MOLT-4, > 10 µM (inactive); with A549, 21.8 µM (inactive); with OVCAR-8 it was 46.1 µM (inactive); in the assay on UACC-257, > 100 µM (inactive); with NCI-H460 it was 34.8 µM (inactive). Further, the GI50 was 30.5 µM (inactive) in the assay on SNB-19, 86.9 µM (inactive) with TK-10, 54.1 µM (inactive) with UO-31 and 29.1 µM (inactive) in the assay with U-251.
On to `O=[N+]([O-])c1cccc(C2=NN(c3ccccc3)C3c4ccccc4OCC23)c1` (stereo not drawn), for which the GI50 in the assay with A498, in the assay with HOP-62, in the assay with Malme-3M, in the assay on HT-29, in the assay with SF-539 and in the assay on MOLT-4 was > 100 µM (inactive) in each case. The GI50 in the assay on A549, with OVCAR-8, in the assay with UACC-257, with NCI-H460, in the assay on SNB-19 and in the assay on TK-10 was > 100 µM (inactive) throughout. Also, the results for the GI50 in the assay on UO-31, in the assay on IGROV-1 and with U-251 were 6.71 µM (inactive), > 100 µM (inactive) and > 100 µM (inactive), respectively.
In the case of `Cc1ccc(Nc2nc(-c3ccc(-c4ccc([N+](=O)[O-])cc4)o3)cs2)cc1`, the GI50 in the assay with SN12C was 73.6 µM (inactive); in the assay with HOP-62, > 100 µM (inactive); with Malme-3M it was 65.2 µM (inactive); with HCT-15 it was 15.7 µM; with NCI-H226, 48.3 µM (inactive); in the assay with HT-29, 28.4 µM (inactive). The GI50 in the assay with SF-539 is 93.8 µM (inactive); with MOLT-4, 4.54 µM (inactive); with A549, 52.7 µM (inactive); in the assay on OVCAR-8, 40.6 µM (inactive); with UACC-257 it was 21.5 µM (inactive); in the assay on NCI-H460 it was 44 µM (inactive). Further, the GI50 was > 100 µM (inactive) in the assay on SNB-19; 25.4 µM (inactive) in the assay with TK-10; 8.51 µM (inactive) in the assay on UO-31; 22.7 µM (inactive) with IGROV-1; 35 µM (inactive) with U-251.
As to `CCCCCCn1c(SCC)c2ccccc2c1-c1nc(F)nc(F)n1`, the GI50 with SN12C is > 100 µM (inactive); in the assay on HOP-62, > 100 µM (inactive); in the assay on Malme-3M, > 100 µM (inactive); in the assay with HCT-15, above 100 µM; with NCI-H226, > 100 µM (inactive); with HT-29, > 100 µM (inactive). Further, the GI50 in the assay with SF-539, in the assay with MOLT-4, in the assay on A549, with OVCAR-8, with UACC-257 and in the assay with NCI-H460 was > 100 µM (inactive) each time. Moreover, the GI50 in the assay on SNB-19, with TK-10, in the assay on UO-31, in the assay with IGROV-1 and in the assay on U-251 was > 100 µM (inactive) in each case.
Regarding `O=C(O)C#CCO`, the GI50 is > 100 µM (inactive) in the assay with A498; > 100 µM (inactive) in the assay on SN12C; > 100 µM (inactive) with HOP-62; > 100 µM (inactive) in the assay on Malme-3M; above 100 µM in the assay with HCT-15; > 100 µM (inactive) with HT-29. For the same compound, the GI50 in the assay on SF-539, in the assay on MOLT-4, with A549, in the assay on OVCAR-8, in the assay with UACC-257 and with NCI-H460 was > 100 µM (inactive) throughout. In addition, the GI50 in the assay on SNB-19, in the assay on TK-10, with UO-31, in the assay with IGROV-1 and in the assay on U-251 was > 100 µM (inactive) each time.
For `N=C(N)NS(=O)(=O)c1ccc(NC(=O)c2cccc3c(Nc4ccc(S(=O)(=O)N=C(N)N)cc4)c4ccc(Cl)cc4nc23)cc1`, the GI50 with A498 was > 100 µM (inactive); in the assay on SN12C it was 75.5 µM (inactive); in the assay on HOP-62, 58.6 µM (inactive); in the assay on Malme-3M it was 64.4 µM (inactive); in the assay with HCT-15, above 100 µM; with HT-29 it was > 100 µM (inactive). The GI50 with SF-539 was > 100 µM (inactive); with MOLT-4, 56.2 µM (inactive); in the assay on A549 it was 53 µM (inactive); in the assay on OVCAR-8 it was 61.2 µM (inactive); with UACC-257, 77.6 µM (inactive); in the assay with NCI-H460, 76.2 µM (inactive). Moreover, the GI50 with SNB-19 is 48.4 µM (inactive); in the assay on TK-10 it was > 100 µM (inactive); in the assay with UO-31, 50.8 µM (inactive); in the assay with IGROV-1, 74.8 µM (inactive); in the assay with U-251 it was 37.2 µM (inactive).
Take `CC(Cn1c2c3ccccc3ccc2c2oc(=O)c3ccccc3c21)N(C)C` (stereo not drawn): the GI50 in the assay with Malme-3M is > 100 µM (inactive); in the assay with HCT-15, above 100 µM; in the assay with HT-29 it was > 100 µM (inactive); in the assay on SF-539, > 100 µM (inactive); in the assay with MOLT-4, > 100 µM (inactive); in the assay on A549, > 100 µM (inactive). Moreover, the GI50 in the assay on OVCAR-8, with UACC-257, in the assay with NCI-H460, with SNB-19, with TK-10 and in the assay with UO-31 was > 100 µM (inactive) in each case. Besides, the GI50 with IGROV-1 and in the assay with U-251 was > 100 µM (inactive) in each case.
With `O=C1C(Br)=CC2(C=C1Br)CCNC1=C2C(=O)c2ccccc2C1=O`, the GI50 with SN12C was 6.68 µM (inactive); in the assay with HOP-62, 16 µM (inactive); in the assay with Malme-3M, 18.1 µM (inactive); with HCT-15 it was 7.76 µM; in the assay on HT-29 it was 18.7 µM (inactive); with MOLT-4, 3.75 µM (inactive). In addition, the GI50 is 22.8 µM (inactive) in the assay with A549; 4.21 µM (inactive) in the assay on OVCAR-8; 14.1 µM (inactive) with UACC-257; 33.3 µM (inactive) in the assay with TK-10; 18.5 µM (inactive) with IGROV-1.
In the case of `O=S(O)CCCSSCCCCSSCCCS(=O)O`, the GI50 in the assay with A498 is > 100 µM (inactive); in the assay on SN12C it was > 100 µM (inactive); in the assay with HOP-62, > 100 µM (inactive); in the assay with Malme-3M, > 100 µM (inactive); with HCT-15, above 100 µM; in the assay with HT-29 it was > 100 µM (inactive). The GI50 in the assay with SF-539 is > 100 µM (inactive); in the assay on MOLT-4 it was 26.7 µM (inactive); in the assay with A549, > 100 µM (inactive); in the assay with OVCAR-8, > 100 µM (inactive); with UACC-257 it was > 100 µM (inactive); in the assay with NCI-H460, > 100 µM (inactive). Also, the GI50 in the assay with SNB-19, in the assay on TK-10, with UO-31, in the assay with IGROV-1 and in the assay on U-251 was > 100 µM (inactive) in each case.
